According to publication PMC3486884 (PLoS Pathogens, 2012):
Several values for one entry are separate records, joined by “and”; a condition that tells them apart may be missing. Equal values may be shown once. Read-outs that look alike come from different tables or passages of the source.

Tests used:
hepatitis C virus = details: cited from earlier work
HRV1A [1] = assay: Full cycle infectivity assay (virus titer, TCID50); assay type: cell-based, human rhinovirus; details: full cycle assays; BafA1 (0.5 nM), alone or drug combination
[2] = tested on: clathrin-coated vesicles (CCV); assay: Acridine orange measurements in clathrin-coated vesicles; details: AO red fluorescence assay
Experimental: CCV suspended in assay buffer (10 mM HEPES, pH7, 100 mM KCl, 1 mM EDTA) were incubated with 1 mM ATP, 2 µM AO (Molecular Probes). The ATPase reaction was initiated by adding MgCl2 to 1 mM and fluorescence was determined at 492/540 nm in a plate reader (Tecan, Männedorf, Switzerland) at room temperature after 10 min. BafA1 and samples without MgCl2 were used as controls.

v-ATPase = v-ATPase (Bos taurus, UniProt P23956); assay: v-ATPase inhibition assay (Pi production in clathrin-coated vesicles); details: bovine brain clathrin-coated vesicles
Experimental: Cow brain CCV were prepared as described [59], diluted in assay buffer (200 mM sucrose, 50 mM KCl, 10 mM HEPES pH7, 1 mM EDTA, 5 µM nigericin, 10 µg/ml oligomycin, 1 mM vanadate) and incubated with the respective compounds at 4°C for 30 min. ATP (10 µl 2 mM ATP and 40 mM MgCl2) were added and the samples incubated at 37°C for 15 min. Production of inorganic phosphate (Pi) was measured with the Sensolyte MG phosphate assay kit according to the manufacturers protocols (AnaSpec).

CVB4 [3] = assay: microbe, parasite or virus in culture; details: Enterovirus B, CVB4, HeLa, read-out: IC50 (CVB4)
rats = details: cited from earlier work
HRV16 [4] = tested on: HRV16
CVB4 [5] = tested on: CVB4
[6] = cited from earlier work
HRV14 [7] = assay: microbe, parasite or virus in culture; details: Human rhinovirus sp., HRV14, HeLa, read-out: IC50 (HRV14)
[8] = Liposome dextran-FITC de-quenching; details: read-out: FITC-fluorescence dequenching, half maximal efficacy; liposomes loaded at pH 5.15 with dextran-FITC
Experimental: Liposomes from soy phosphatidyl-choline were prepared in 100 mM acetate pH 5.15 containing 1 mM 4.4 kDa FITC-dextran using standard extrusion protocols yielding vesicles of an average size of 200 nm measured using a particle size analyzer (Nicomp 370, Nicomp, Port Richey, FL, USA). Non-encapsulated FITC-dextran was removed by size exclusion chromatography in a G25 column (Pharmacia) followed by extensive dialysis against 100 mM acetate pH 5.15 in a Floatalyzer with 50 kDa cut-off (Spectrumlabs). To measure fluorescence de-quenching FITC-dextran containing liposomes were diluted in PBS at 20–60 µg/ml, incubated with the respective compounds at room temperature and analysed for fluorescence using a plate reader (TECAN Safire II) with fluorescence TOP measurement settings at excitation of 483/10 nm and emission of 525/15 nm wavelength within 15 min. Control measurements of samples containing PBS, Triton X-100 or the compounds alone were carried out to measure background, maximal readout of the assay and auto-fluorescence of compounds. The data were normalized to the PBS control and background fluorescence was subtracted.

CVA21 [9] = assay: microbe, parasite or virus in culture; details: Coxsackievirus, CVA21, HeLa, read-out: IC50 (CVA21)
[10] = tested on: influenza virus (strain A/Puerto Rico/8/34/H1N1 depicted PR8); assay: microbe, parasite or virus in culture; details: unidentified influenza virus, A549, read-out: IC50 (PR8)
[11] = tested on: influenza virus (strain A/Puerto Rico/8/34/H1N1 depicted PR8)
CVB3 [12] = tested on: CVB3
HRV2 [13] = assay: microbe, parasite or virus in culture; details: Human rhinovirus sp., HRV2, HeLa, read-out: IC50 (HRV2)
HSV1 [14] = tested on: HSV1
HRV1A [15] = assay: microbe, parasite or virus in culture; details: Human rhinovirus sp.
HRV16 [16] = assay: microbe, parasite or virus in culture; details: Human rhinovirus sp., HRV16, HeLa, read-out: IC50 (HRV16)
HRV14 [17] = tested on: HRV14
HRV1A [18] = assay: HRV1A infection of WI-38 human embryonic diploid airway cells; assay type: cell-based; details: Human rhinovirus sp.
Experimental: A single cell high-content, image based infection assay was applied to measure infection in high throughput format. Viruses were added to cells in infection medium containing BSA (DMEM containing 25 mM HEPES if used outside of a CO2 cell culture incubator, supplemented with L-glutamine, 30 mM MgCl2 and 0.2% BSA (Sigma) for CV and HRV), or in infection medium containing trypsin-TPCK (DMEM supplemented with L-glutamine and TPCK-trypsin 1 µg/ml (Sigma) for FLU/PR8) and normal growth media for HSV. For all experiments, the multiplicity of infection (moi) was chosen such that approximately 20–40% of the cells were infected at 7 h post infection (pi) (HRV &CV), 8 h pi (FLU) or 18 h pi (HSV). Cells were fixed by adding 1/3 volume of a 16% para-formaldehyde solution, washed with PBS, PBS/25 mM NH4Cl and PBS, permeabilized with 0.2% Triton X-100 (Sigma), washed twice with PBS and blocked with PBS/1% BSA (Fraction V, Sigma). […] Routinely, 9–20 images per well were acquired yielding an average of 5000–12000 cells analysed per well and data point. […] Images were analyzed using a custom written Matlab routine. […]
Compounds were dissolved in dimethyl sulfoxid (DMSO, cell culture grade, Sigma) and added to cells in dilutions indicated with respective concentrations of solvent alone as controls. […] Infection was quantified by immune-staining for dsRNA. […]

[19] = pKa and log P quoted from the literature; assay type: physicochemical; details: pH 7.4
CVB3 [20] = assay: microbe, parasite or virus in culture; details: Enterovirus B, CVB3, HeLa, read-out: IC50 (CVB3)
HRV2 [21] = tested on: HRV2
HRV1A, 2, 14, 16 = assay: Infection assays with the HRV panel in HeLa cells; assay type: cell-based, human rhinovirus
CVA21 [22] = tested on: CVA21
HSV1 [23] = assay: microbe, parasite or virus in culture; details: Human alphaherpesvirus 1, read-out: IC50 (HSV1)

CCN(CC)CCCC(C)Nc1ccnc2cc(Cl)ccc12 (stereo not drawn) [chloroquine]
IC90 (hepatitis C virus): 20000 nM

CO/C1=C\C(C)=C\[C@@H](C)[C@@H](O)[C@@H](C)C/C(C)=C/C=C/[C@H](OC)[C@@H]([C@@H](C)[C@@H](O)[C@H](C)[C@@]2(O)C[C@@H](O)[C@H](C)[C@@H](C(C)C)O2)OC1=O [BafA1, bafilomycin A1]
decrease of virus titers (HRV1A [1]): about five-fold
pH of isolated CCV [2]: neutralized the pH of CCV in a dose-dependent manner
v-ATPase activity (ATP hydrolysis, production of Pi) (v-ATPase): completely blocked the production of Pi

C/C=C/[C@H]1O[C@@](O)([C@@H](C)[C@H](O)[C@H](C)[C@H]2OC(=O)/C(OC)=C/C(C)=C/[C@@H](C)[C@@H](O)[C@@H](CC)[C@@H](O)[C@H](C)C/C(C)=C/C=C/[C@@H]2OC)C[C@@H](O[C@H]2C[C@@H](O)[C@H](OC(N)=O)[C@@H](C)O2)[C@@H]1C [concanamycin A]
pH of isolated CCV [2]: neutralized the pH of CCV in a dose-dependent manner
v-ATPase activity (ATP hydrolysis, production of Pi) (v-ATPase): completely blocked the production of Pi

O=C(Nc1ccc([N+](=O)[O-])cc1Cl)c1cc(Cl)ccc1O [niclosamide, 5-chloro-N-(2-chloro-4-nitrophenyl)-2-hydroxybenzamide, reference compound]
IC50 (CVB4 [3]): 3880 nM
decrease of virus titers (HRV1A [1]): about five-fold
acute oral toxicity LD50 (rats): > 5 g/kg body weight
TI (IC50 / CC50), HRV16 (HRV16 [4]): 14.7
TI (IC50 / CC50), CVB4 (CVB4 [5]): 5.22
log P ([6]; pH 5.7): 5.63
log P ([6]; pH 7): 4.48
pH of isolated CCV [2]: neutralized the pH of CCV in a dose-dependent manner
IC50 (HRV14 [7]): 840 nM
EC50 [8]: 14000 nM
IC50 (CVA21 [9]): 6630 nM
IC50 [10]: 830 nM
TI (IC50 / CC50), PR8 [11]: 24.4
TI (IC50 / CC50), CVB3 (CVB3 [12]): < 0.4
IC50 (HRV2 [13]): 1010 nM
TI (IC50 / CC50), HSV1 (HSV1 [14]): 1.37
IC50 (HRV1A [15]; HeLa, read-out: IC50 (HRV1A)): 1040 nM
activity at 0.03 µM (HRV1A [15]; M-HeLa, 7 h, read-out: HRV1A infection (dsRNA), 0.03 µM): 98%
activity at 0.1 µM (HRV1A [15]; M-HeLa, 7 h, read-out: HRV1A infection (dsRNA), 0.10 µM): 96%
activity at 0.31 µM (HRV1A [15]; M-HeLa, 7 h, read-out: HRV1A infection (dsRNA), 0.31 µM): 90%
activity at 0.93 µM (HRV1A [15]; M-HeLa, 7 h, read-out: HRV1A infection (dsRNA), 0.93 µM): 39%
activity at 2.78 µM (HRV1A [15]; M-HeLa, 7 h, read-out: HRV1A infection (dsRNA), 2.78 µM): 4%
activity at 8.33 µM (HRV1A [15]; M-HeLa, 7 h, read-out: HRV1A infection (dsRNA), 8.33 µM): 5%
activity at 25 µM (HRV1A [15]; M-HeLa, 7 h, read-out: HRV1A infection (dsRNA), 25.00 µM): 4%
IC50 (HRV16 [16]): 1380 nM
TI (IC50 / CC50), HRV14 (HRV14 [17]): 24.1
IC50 (HRV1A [18]): 1300 nM
molecules in the deprotonated form [19]: about 99%
IC50 (CVB3 [20]): > 50000 nM
TI (IC50 / CC50), HRV2 (HRV2 [21]): 20.1
IC50 (HRV1A, 2, 14, 16; Human rhinovirus sp., HRV1A, HeLa, read-out: IC50 (range over HRV1A, 2, 14, 16)): 840 to 1400 nM
effect of drug washout on the antiviral effect (HRV1A, 2, 14, 16; cells pre-treated 30 min or 18 h, washed with drug-free medium): completely abolished the antiviral effect
time of addition giving half maximal effects (HRV1A, 2, 14, 16; compound added before or post infection of HeLa cells with HRV): ≤ 30 min pi
effect of virus pre-treatment on the inhibition profile (HRV1A, 2, 14, 16; viruses pre-treated at up to 400 µM at 37°C for 30 min): did not affect the inhibition profile
TI (IC50 / CC50), CVA21 (CVA21 [22]): 3.06
IC50 (HSV1 [23]): > 10000 nM and 14800 nM
